Here are results for 15 molecules from patent publication US9840496B2, “CD38 inhibitors and methods of treatment” (GlaxoSmithKline Intellectual Property (No.2) Limited, priority 2014, dated 2017).

Usually IC50 stands for the concentration at which inhibition is half-maximal.

The target of the experiment is T1, human CD38 (Homo sapiens, UniProt P28907).
T1 construct: The extracellular domain of human CD38 was expressed in pichia pastoris and purified to homogeneity; made in house; host or cells: Pichia pastoris
T1 sequence (P28907 43-300 limits assumed): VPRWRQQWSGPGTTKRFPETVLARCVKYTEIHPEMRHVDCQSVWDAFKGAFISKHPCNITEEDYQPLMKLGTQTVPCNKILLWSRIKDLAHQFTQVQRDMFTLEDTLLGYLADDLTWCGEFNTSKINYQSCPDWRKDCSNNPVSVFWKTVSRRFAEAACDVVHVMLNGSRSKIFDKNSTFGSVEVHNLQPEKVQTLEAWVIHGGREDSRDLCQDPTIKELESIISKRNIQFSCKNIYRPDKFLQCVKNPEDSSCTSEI
The experiment is described as follows: human CD38 enzyme activity colorimetric assay. It is filed as biochemical. The following applies: extracellular domain of human CD38, 0.4 nM CD38, 100 uM NAD+. Here is the method: The extracellular domain of human CD38 was expressed in pichia pastoris and purified to homogeneity. The enzyme activity assay was performed in a low-volume 384-well plate in a total volume of 20 μL. A range of concentrations of test compound in 200 nL DMSO was delivered into the assay plate wells. Columns 6 and 18 of the plate contained DMSO with no compound and served as the high signal and low signal controls (no CD38 added), respectively. All additions of assay reagents to the plate were done using a Multidrop Combi, and the plate was shaken 3-5 seconds after each addition. CD38 (0.8 nM) was incubated with test compound in 10 μL containing 100 mM HEPES, pH 7.4, 4 mM EDTA, and 1 mM CHAPS for 30 minutes prior to initiation of the reaction. The reaction was initiated by a 10 μL addition containing 5 mM sodium acetate, pH 4.5, 1 mM CHAPS, 200 μM NAD+ and 500 uM GW323424X. The solutions for each of the two additions were prepared fresh each day from concentrated stocks of the individual components. […] Catalytic formation of this novel chromophore was followed in an Envision microplate reader by reading absorbance at two time points, typically 30 minutes apart within the first 45 minutes of the reaction. These time points were established empirically to ensure the rates determined were in a linear range of product formation. Data analysis was performed in the following way using ActivityBase XE (Abase XE). The data from the 15 and 45 minute reads was processed by performing a subtraction function of 45 minute read value minus 15 minute read value for each plate well. The resulting values for non-control wells were converted to % inhibition using the formula 100*((U−C1)/(C2−C1)) where U is the value of the test well, C1 is the average of the values of the high signal (column 6) control wells, and C2 is the average of the values of the low signal (column 18) control wells. Percent inhibition (y) was plotted versus inhibitor concentration (x), and curve fitting was performed with the following four parameter equation: y=A+((B−A)/(1+(10^x/10^C)^D)), where A is the minimum response, B is the maximum response, C is the log10IC50, and D is the Hill slope.

`CCC(O)(CN[C@H]1CC[C@H](NC(=O)c2cc(-n3ccnc3)cc3cc[nH]c23)CC1)C(F)(F)F` (stereo partly drawn) [example 1, N-((1r,4r)-4-((2-Hydroxy-2-(trifluoromethyl)butyl)amino)cyclohexyl)-5-(1Himidazol-1-yl)-1H-indole-7-carboxamide]: the IC50 lay in the range of 500 to 1000 nM.
The same measure for `C[C@](CO)(N[C@H]1CC[C@H](NC(=O)c2cc(-n3ccnc3)cc3cc[nH]c23)CC1)C(F)(F)F` [example 2, 5-(1H-Imidazol-1-yl)-N-((1R,4r)-4-(((R)-1,1,1-trifluoro-3-hydroxy-2-methylpropan-2-yl)amino)cyclohexyl)-1H-indole-7-carboxamide]: 500 to 1000 nM.
Then `CC(C)c1c[nH]c2c(C(=O)N[C@H]3CC[C@H](OCC(C)(C)O)CC3)cc(-n3ccnc3)cc12` [example 3, N-((1r,4r)-4-(2-Hydroxy-2-methylpropoxy)cyclohexyl)-5-(1H-imidazol-1-yl)-3-isopropyl-1H-indole-7-carboxamide], with > 1000 nM; and `CNC(=O)[C@H]1CC[C@H](NC(=O)c2cc(-n3ccnc3)cc3cc[nH]c23)CC1` [example 4, 5-(1H-Imidazol-1-yl)-N-((1s,4s)-4-(methylcarbamoyl)cyclohexyl)-1H-indole-7-carboxamide], with < 500 nM.
Turning to `CC(O)CO[C@H]1CC[C@H](NC(=O)c2cc(-n3ccnc3)cc3cc[nH]c23)CC1` (stereo partly drawn) [example 7, N-((1r,4r)-4-(2-Hydroxypropoxy)cyclohexyl)-5-(1H-imidazol-1-yl)-1H-indole-7-carboxamide], the IC50 was < 500 nM.
The same measure for `CC(O)CO[C@H]1CC[C@H](NC(=O)c2cc(-n3ccnc3)cc3c(Cl)c[nH]c23)CC1` (stereo partly drawn) [example 8, 3-Chloro-N-((1r,4r)-4-(2-hydroxypropoxy)cyclohexyl)-5-(1H-imidazol-1-yl)-1H-indole-7-carboxamide]: 500 to 1000 nM; for `CC(O)(CO[C@H]1CC[C@H](NC(=O)c2cc(-n3ccnc3)cc3cc[nH]c23)CC1)C(F)(F)F` (stereo partly drawn) [example 9]: < 500 nM.
The same measure for `CC(O)(CN[C@H]1CC[C@H](NC(=O)c2cc(-n3ccnc3)cc3cc[nH]c23)CC1)C(F)(F)F` (stereo partly drawn) [example 10, 5-(1H-Imidazol-1-yl)-N-((1r,4r)-4-((3,3,3-trifluoro-2-hydroxy-2-methylpropyl)amino)cyclohexyl)-1H-indole-7-carboxamide]: > 1000 nM; for `CC(O)(C(=O)N[C@H]1CC[C@H](NC(=O)c2cc(-n3ccnc3)cc3cc[nH]c23)CC1)C(F)(F)F` (stereo partly drawn) [example 11, 5-(1H-Imidazol-1-yl)-N-((1r,4r)-4-(3,3,3-trifluoro-2-hydroxy-2-methylpropanamido)cyclohexyl)-1H-indole-7-carboxamide]: < 500 nM; for `O=C(N[C@H]1CC[C@H](NCC(F)F)CC1)c1cc(-n2ccnc2)cc2cc[nH]c12` [example 12, N-((1r,4r)-4-((2,2-Difluoroethyl)amino)cyclohexyl)-5-(1H-imidazol-1-yl)-1H-indole-7-carboxamide]: < 500 nM.
For `O=C(N[C@H]1CC[C@H](NCC(F)F)CC1)c1cc(-n2ccnc2)cc2c(Cl)c[nH]c12` [example 13, 3-Chloro-N-((1r,4r)-4-((2,2-difluoroethyl)amino)cyclohexyl)-5-(1H-imidazol-1-yl)-1H-indole-7-carboxamide], the half-inhibitory concentration (IC50) is > 1000 nM.
The same measure for `CC(C)C(O)CO[C@H]1CC[C@H](NC(=O)c2cc(-n3ccnc3)cc3cc[nH]c23)CC1` (stereo partly drawn) [example 14, N-((1r,4r)-4-(2-Hydroxy-3-methylbutoxy)cyclohexyl)-5-(1H-imidazol-1-yl)-1H-indole-7-carboxamide]: < 500 nM.
As for `CC(O)(COC1CCC(NC(=O)c2cc(-n3ccnc3)cc3cc[nH]c23)CC1)C1CC1` (stereo not drawn) [example 15, N-((1r,4r)-4-(2-Cyclopropyl-2-hydroxypropoxy)cyclohexyl)-5-(1H-imidazol-1-yl)-1H-indole-7-carboxamide], the IC50 was < 500 nM.
Then `C[C@@H](CS(C)(=O)=O)N[C@H]1CC[C@H](NC(=O)c2cc(-n3ccnc3)cc3cc[nH]c23)CC1` [example 16, 5-(1H-Imidazol-1-yl)-N-((1R,4r)-4-(((R)-1-(methylsulfonyl)propan-2-yl)amino)cyclohexyl)-1H-indole-7-carboxamide], with > 1000 nM.
Then “N-((1r,4r)-4-(2-Hydroxy-2-methylpropoxy)cyclohexyl)-5-(1H-imidazol-1-yl)-1H-indole-7-carboxamide [example 6]”, with < 500 nM.
